In PMC9797896 (Medicinal Chemistry Research, 2022):

System: not listed separately
Experiment: in vitro
Conditions: African green monkey

Structure (SMILES) | CC50
CCC(CC)COC(=O)[C@H](C)N[P@](=O)(OC[C@H]1O[C@@](C#N)(c2ccc3c(N)ncnn23)[C@H](O)[C@@H]1O)Oc1ccccc1 [Remdesivir, remdesivir] | > 100 µM

System: Vero E6 cells
Experiment: not given
Conditions: African green monkey

Structure (SMILES) | CC50
CC(C)C(=O)OC[C@H]1O[C@@H](n2ccc(NO)nc2=O)[C@H](O)[C@@H]1O [Molnupiravir, molnupiravir] | > 100 µM
CC(C)=CCNc1ncnc2c1ncn2[C@@H]1O[C@H](CO)[C@@H](O)[C@H]1O [Riboprine, N^6-(2-Isopentenyl)adenosine] | > 100 µM
Nc1ncnc2c1ncn2[C@@H]1O[C@H](CO)[C@@H](O)[C@@H]1O [Vidarabine, Arabinosyladenine] | > 100 µM
OC[C@H]1O[C@@H](n2cnc3c(N[C@@H]4CCOC4)ncnc32)[C@H](O)[C@@H]1O [Tecadenoson, tecadenoson] | > 100 µM
O=c1[nH]cnc2c([C@@H]3N[C@H](CO)[C@@H](O)[C@H]3O)c[nH]c12 [Forodesine, forodesine] | > 100 µM
CC(C)Nc1nc2cc(Cl)c(Cl)cc2n1[C@H]1O[C@@H](CO)[C@H](O)[C@@H]1O [Maribavir, maribavir] | > 100 µM
COc1nc(N)nc2c1ncn2[C@@H]1O[C@H](CO)[C@@H](O)[C@@H]1O [Nelarabine, nelarabine] | > 100 µM
